Data set [1] is described as follows: Ratio of drug level in human erythrocytes to plasma at 2.8 g, po. Format: ADME.
Data set [2] can be described thus: Tmax in human plasma at 2.8 g, po by liquid chromatography-tandem mass spectrometry method. The data set is classed as ADME, organism-based.
Data set [3] in a line: Cmax in human plasma at 2.8 g, po by liquid chromatography-tandem mass spectrometry method. Format: ADME, organism-based. More on the design: route oral, dose 2.8 g.
A short description of data set [4]: Central volume of distribution in human at 2.8 g, po. The data set is classed as ADME. The conditions noted are these: in vivo.
The nature of data set [5]: Tmax in human erythrocytes at 2.8 g, po by liquid chromatography-tandem mass spectrometry method. The data set is classed as ADME, organism-based, Erythrocyte.
A short description of data set [6]: AUC (0 to 24 hrs) in human plasma at 2.8 g, po by liquid chromatography-tandem mass spectrometry method. More on the design: time < 24 hr, route oral, dose 2.8 g. The data set is classed as ADME, organism-based.
Data set [7] in a line: Cmax in human erythrocytes at 2.8 g, po by liquid chromatography-tandem mass spectrometry method. Also on record: route oral, dose 2.8 g. The data set is classed as ADME, organism-based, Erythrocyte.
A short description of data set [8]: Clearance in human at 2.8 g, po by liquid chromatography-tandem mass spectrometry method. The conditions noted are these: in vivo. Format: ADME, organism-based.
Data set [9] in a line: Induction of hemoglobin modification in human at 900 mg/day.

As for `CC(C)n1nccc1-c1ncccc1COc1cccc(O)c1C=O` [VOXELOTOR], the Kp in data set [1] stood at 67. Further, the time of peak concentration (Tmax) in [2] stood at 7.1 h; in [5], 17.1 h. Besides, the results for the Cmax in data set [3] and in data set [7] were 18.7 µM and 1110 µM, respectively. The same molecule had a Vc in [4] of 5.2 L/kg. Moreover, in data set [6], the AUC(0-t) at 24 h is 1280 µM·h. Also, the CL/F in data set [8] was determined as 5.4 mL/h/kg. This molecule also came in with an Activity in data set [9] of 40%.

As usually defined, the Kp is tissue or fluid exposure divided by exposure in the circulation. The Tmax is the time from dosing to the highest level. As a reminder, the Cmax is the peak of the concentration-time curve. In general, AUC(0-t) refers to exposure summed from dosing to a finite time, without extrapolation to infinity. Low values mean less exposure, high ones more exposure. As a reminder, the CL/F is the apparent clearance, not corrected for the fraction that reaches the circulation.

The values above are taken from ChEMBL document CHEMBL4813910, “Curse or Cure? A Perspective on the Developability of Aldehydes as Active Pharmaceutical Ingredients” (J Med Chem, 2020).
